{"source": "patent US11512042B2", "about": "“Enamine compounds for absorbance of electromagnetic energy” (Commonwealth Scientific and Industrial Research Organisation, priority 2015, dated 2022)", "assay_type_in_all_cases": "physicochemical", "key": {"[1]": {"assay": "PMMA film in QUV Weatherometer", "details": "type A bulbs, 70° C. 8 hours then dark humid 50° C. 4 h", "method": "In order to gauge longer term photostability, the PMMA film samples were evaluated in a QUV Weatherometer using type A bulbs with solar irradiance at 70° C. for 8 hours followed by heating in the dark under a humid atmosphere at 50° C. for 4 h. The film was then sandwiched between 2 glass slides to prevent deformation and irradiated. The samples were evaluated by a visual comparison and measurement of transmittance spectra. […] This clearly indicates the suitability of compounds of the first aspect to incorporation into polymeric matrices and films. The relevant transmission spectra are shown in FIG. 11 (142), FIG. 12 (143), FIG. 13 (164), FIG. 14 (213) and FIG. 15 (215) wherein in all of these figures the lower plateau line represents the result following radiation and the upper line prior to irradiation."}, "[2]": {"assay": "Photostability protocol: thin film irradiated with xenon arc lamp", "details": "1 hour xenon arc lamp", "how_it_was_run": "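A 3% solution in EtOH/triglyceride/alkyl benzoate is dried on glass slides into a liquid film of 1.5 mg compound. Films are irradiated 1 h with a Pyrex-filtered 150 W xenon arc lamp (about 100 MED, below 30° C). Washings are read by UV; stability is absorbance at λmax relative to unirradiated film.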"}, "[3]": {"assay": "% transmission spectrum of 0.1% solution (breakthrough, steepness)", "how_it_was_run": "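Transmission was recorded for 0.1% methanol solutions in a 2 mm cuvette. Breakthrough is the wavelength (nm) at which transmittance exceeds 1%; steepness is the nm span over which transmittance rises from 1 to 80%. Some values are averages of multiple measurements.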"}, "[4]": {"assay": "Stability to epoxy resin curing", "details": "2 part epoxy resin, transmittance vs solution", "method": "In order to test the stability of a number of compounds to a typical epoxy resin curing system, epoxy adhesive packs were obtained (Parfix 5 minute everyday epoxy adhesive, 24 ml). This is a standard 2 part epoxy resin with the first part composed of a viscous Bisphenol-A/epichlorohydrin polymeric reaction product. The second part is a viscous 30% solution of an aminophenol hardener, T (shown below). Epoxy resins cured by 1° and 2° amines are also available.\nTo test the stability of the compounds to the curing conditions, a 0.1% wt (1 mg absorber per gram of resin) was prepared and added to a mould comprising a 2 mm thick viton o-ring super glued to a microscope slide. […] Due to difficulties in solubilising the compounds in the mixed resin/hardener in the limited working time as the resin cured; the two barrels of the application syringe were separated with a scalpel allowing the separate application of both parts of the resin system.\nThis was then mixed thoroughly and immediately added to the moulds as described above. […]"}, "[5]": {"assay": "Irradiation in polyurethane varnish coating", "details": "1% in polyurethane varnish, xenon arc lamp two hours", "method": "As a model for the use of the compounds of the first aspect in coatings, a 1% solution by mass (10 mg in 1 g) of the compounds in British Paints oil based polyurethane varnish was applied to the surface of a microscope slide and left to dry overnight in the dark. The transmittance of the slide was then measured before irradiating the sample with a xenon arc lamp (as for the solution phase thin film samples) for two hours and the transmittance re-measured. Slight variations in the thickness of the films obtained would be sufficient to result in variations in transmittance so it was judged to be of equal importance to observe the slope of the samples before and after irradiation as any change here was likely an indicator of decomposition. The varnish itself blocks the transmission of light up to approximately 350-370 nm."}, "[6]": {"assay": "Lens casting in CR-39 lens formulation", "details": "benzoyl peroxide initiator, cured 70° C. 18 hours, 0.1 wt %", "method": "Two lens formulations were used. The first (CR-39) was composed of Di(ethylene glycol) bis(allylcarbonate) with 3% wt benzoyl peroxide as initiator. The second lens formulation (NK) was made up of 4 parts NK Ester BPE 100N (Ethoxylated Bisphenol A dimethacrylate) to 1 part NK Ester 9G (PEG 400 dimethacrylate) with 0.4 wt % AIBN as initiator.\nOnce the glue had dried the lens matrix (3 g of the lens matrix was treated with 3 mg of absorber, 0.1 wt % and stirred until dissolution complete. 3 g of the matrix was sufficient to prepare 3-4 lenses) was added via pipette to the interior until a convex meniscus was formed at the top of the O-ring. The mixture was then left to settle for 15 minutes during which time any bubbles formed were dispersed. A second microscope slide was then slowly rolled on top of the first to form a seal and expel any air. Taking care to maintain pressure the lens mould was then clamped at the sides with two “Bulldog” clips and cured in an oven at 70° C. for 18 hours. Once the curing process was complete the two microscope slides were separated and the lens removed from the O-ring before washing with acetone and drying/polishing with a soft tissue. The lenses thus formed were approximately 2 mm thick and 15 mm in diameter.\nOf particular interest are compounds 163 and 164 which show an increase in λmax on constraining only the nitrogen substituent in a ring i.e. not the double bond. […] Additionally the dimethyl analogue 213 (structure in table 14) was also evaluated."}, "[7]": {"assay": "Irradiation of PMMA thin film (xenon lamp, sunlight)", "details": "irradiated 1 h, 2 h and 3 weeks direct sunlight", "method": "In order to determine the stability of the compounds in a polymer matrix, thin films were cast in Poly(methylmethacrylate) (PMMA). This was achieved by adding the compound in question to a solution of PMMA (Mw 240,000) in DCM and spreading the resulting solution onto a glass slide before evaporation over night to give the desired film. The film was then sandwiched between 2 glass slides to prevent deformation and irradiated. […] In this way films of compound 164 were prepared. The films were irradiated for 1 h, 2 h and also left outside exposed to direct sunlight and atmospheric conditions for 3 weeks (Melbourne summer time)."}, "[8]": {"assay": "UV absorbance spectrum in solution (λmax, λcrit, extinction coefficients)", "how_it_was_run": "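Spectra taken on 0.001% solutions in methanol, 10 mm path. Breakthrough is the wavelength where transmittance rises above 1%; steepness is the nm span over which transmittance goes from 1 to 80%.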"}}, "note": "“Also recorded” adds a separate entry of the source.", "data": [{"smiles": "O=C(/C(=C\\N1CCc2ccccc21)c1ccccc1)C(F)(F)F", "note": "[Compound 164]", "values": [{"measurement": "Longer term photostability in PMMA film", "setting": "[1]", "value": "little sign of decomposition after irradiation"}, {"measurement": "Photostability (% remains)", "setting": "[2]", "value": 99, "unit": "%"}, {"measurement": "Photostability", "setting": "[2]; ratio of absorbance at λmax irradiated vs unirradiated, ^a = average of multiple measurements", "value": 99, "unit": "%"}, {"measurement": "Steepness", "setting": "[3]; distance in nm over which transmittance increases from 1 to 80%", "value": 20, "unit": "nm"}, {"measurement": "Breakthrough (1% T at 0.1%)", "setting": "[3]; value in nm where transmittance increases beyond 1%, 0.1% solution", "value": 418, "unit": "nm"}, {"measurement": "Stability to epoxy resin curing", "setting": "[4]", "value": "remain intact after curing"}, {"measurement": "Stability to irradiation in varnish", "setting": "[5]", "value": "largely unscathed by the irradiation"}, {"measurement": "Stability to lens casting conditions", "setting": "[6]", "value": "stable enough for such incorporation; also recorded: good stability to the lens curing conditions"}, {"measurement": "Stability in PMMA thin film", "setting": "[7]", "value": "without compound deterioration"}, {"measurement": "λmax", "setting": "[8]", "value": 367, "unit": "nm"}, {"measurement": "λcrit", "setting": "[8]; critical wavelength", "value": 389, "unit": "nm"}, {"measurement": "E (1%, 1 cm)", "setting": "[8]; mass extinction coefficient", "value": 1127}, {"measurement": "ε", "setting": "[8]; molar extinction coefficient, in M-1 cm-1 (unit assumed)", "value": 35741}]}]}
